Legend:
[1] = target: MED1 co-activator peptide containing the LXXLL motif; experiment: SPR; MED1 peptide amine-coupled to a CM5 chip (about 60 RU); PPARγ LBD WT or mutant injected at 78 nM to 10 μM, 30 μL/min, 120 s, dissociation 400 s; Biacore T200, 25 °C; 50 mM Tris-HCl pH 7.5, 150 mM NaCl, 1 mM TCEP, 0.005% tween 20; 1:1 Langmuir model
[2] = system: RXRα LBD; experiment: SPR heterodimerization of PPARγ LBD proteins with immobilized RXRα LBD; format: binding
Method: The transcriptional activity of PPARγ is regulated by heterodimer formation with RXRα and the recruitment of co-regulators.
(§1) The binding affinities of PPARγ LBD with lobeglitazone, RXRα and MED1 were investigated by SPR kinetics experiments. All SPR experiments were conducted at 25 °C in a Biacore T200 system (GE Healthcare). For immobilization, an amine coupling kit containing 0.1 M N-hydroxysuccinimide and 0.4 M 1-ethyl-3-(3-dimethylaminopropyl) carbodiimide hydrochloride on a CM5 sensor chip with HBS-EP (HEPES-buffered saline with EDTA and surfactant P20) buffer (10 mM HEPES pH 7.5, 150 mM NaCl, 3 mM EDTA, 0.005% tween 20) was used according to the manufacturer’s protocol (GE Healthcare). […] The remaining activated carboxyl groups on the CM5 sensor chip surface were deactivated with 1 M ethanolamine at pH 8.5 for 400 s. The control experiment was treated identically with reference flow cell 1 or 3 without proteins and the response by the control was subtracted from each sample dataset. […] The sensor chip surface was regenerated for 5 s with 5 mM NaOH between cycles. […] The SPR response data were fit to the simple bimolecular 1:1 Langmuir isotherm binding model to determine the equilibrium dissociation constant (KD) using Biacore T200 evaluation software 3.0 (GE Healthcare).

[3] = system: MED1 peptide; experiment: SPR binding of PPARγ LBD proteins to immobilized MED1 co-activator peptide
Method: Next, we evaluated the interaction between PPARγ LBD and MED1 co-activator peptides containing the LXXLL motif, where X represents any amino acid residue, by SPR (Figure 3D–F and Figure S8).
as §1

[4] = target: T1, PPARγ LBD WT (peroxisome proliferator-activated receptor gamma ligand-binding domain, wild-type) (human, UniProt P37231-2 195-477); experiment: SPR; RXRα LBD amine-coupled to a CM5 chip (about 600 RU); PPARγ LBD WT or mutant injected, 30 μL/min, 120 s, dissociation 500 s; Biacore T200, 25 °C; 50 mM Tris-HCl pH 7.5, 150 mM NaCl, 1 mM TCEP, 0.005% tween 20; 1:1 Langmuir model; conditions: both partners purified
T1 construct: numbers count on: the PPARγ1 isoform; pET-28b(+) between Nde1 and Xho1; also called PPARγ WT; source: E. coli Rosetta 2(DE3), purified (Ni2+ HiTrap chelating, thrombin cleavage, Superdex200 gel filtration); not shown: His6, N-terminal, cleaved
T1 sequence (looked up): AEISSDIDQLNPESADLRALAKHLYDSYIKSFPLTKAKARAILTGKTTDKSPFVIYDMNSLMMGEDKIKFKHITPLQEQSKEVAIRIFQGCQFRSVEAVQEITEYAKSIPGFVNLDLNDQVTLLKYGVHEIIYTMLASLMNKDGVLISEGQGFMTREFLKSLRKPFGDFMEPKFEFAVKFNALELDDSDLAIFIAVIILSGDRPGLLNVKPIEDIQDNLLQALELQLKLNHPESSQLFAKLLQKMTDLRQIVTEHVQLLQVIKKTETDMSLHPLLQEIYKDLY

With “PPARγ LBD WT (peroxisome proliferator-activated receptor gamma ligand-binding domain, wild-type) (from UniProt P37231-2 195-477) (domain or fragment)” as the molecule, how does the Kd [1] read?
Its Kd is 8.45 µM.

How did the “ka for RXRα LBD” value [2] turn out when “PPARγ LBD WT: recombinant human PPARγ ligand-binding domain (residues 195–477), wild-type” was run?
Its value is 396000 M⁻¹ s⁻¹.

What about the “kd for RXRα LBD” value [2] of the same molecule?
The value was 0.0223 s⁻¹.

What about the Kd ([2]; 25 °C, RXRα LBD immobilized) of the same molecule?
Its Kd is 0.0579 µM.

What about the “ka for MED1 peptide” value [3] of the same molecule?
Its value is 146000 M⁻¹ s⁻¹.

What about the “kd for MED1 peptide” value [3] of the same molecule?
Its value is 1.24 s⁻¹.

What about the Kd ([3]; 25 °C, MED1 peptide immobilized) of the same molecule?
The Kd was 8.45 µM.

B1: RXRα LBD (retinoid X receptor α ligand-binding domain) (domain or fragment, UniProt P19793 223-462, looked up)
chain: TSSANEDMPVERILEAELAVEPKTETYVEANMGLNPSSPNDPVTNICQAADKQLFTLVEWAKRIPHFSELPLDDQVILLRAGWNELLIASFSHRSIAVKDGILLATGLHVHRNSAHSAGVGAIFDRVLTELVSKMRDMQMDKTELGCLRAIVLFNPDSKGLSNPAEVEALREKVYASLEAYCKHKYPEQPGRFAKLLLRLPALRSIGLKCLEHLFFFKLIGDTPIDTFLMEMLEAPHQMT
Which Kd [4] does the source give for B1 here?
Its Kd is 0.0579 µM.
